Data as given in patent US11517575B2, “Use of minaprine to reduce tumor growth” (Institut Gustave-Roussy, priority 2019, dated 2022).
Peptide text beside a SMILES is read from it. * marks the point of attachment. Cbz = O=C(OCc1ccccc1)*; CH2F = FC*

Test system: HCT116 cells
Assay: Cell death profiling by quantitative flow imaging of irradiated/non-irradiated co-cultures with death effector inhibitors
Format: cell-based, human
Conditions: 4 Gy, 24 h co-culture; for engulfment of neighboring cells by gamma-irradiated CMFDA+ cells (cell-in-cell structures): Y27632 30 μM; for PS exposure on outer plasma membrane of irradiated CMFDA+ cells: Rosco 10 μM
Description: FIG. 2 Detection of γ-irradiation-elicited cell autonomous death modalities by quantitative imaging flow-cytometry. (A-E) Detection and quantification of plasma membrane integrity loss and PS exposure observed after 24 hour co-culture of untreated (red/dark grey) CMTMR-labeled HCT116 cells and untreated (green/light grey) CMFDA-labeled HCT116 cells (A, C-E), of untreated (red/dark grey) CMTMR-labeled HCT116 cells and untreated (green/light grey) CMFDA-labeled HCT116 cells that have been extemporally mixed (C-E) or after 24 hour co-culture of untreated (red/dark grey) […] HCT116 cells with (green/light grey) CMFDA-labeled HCT116 cells (green) that have been irradiated with 4 grays of γ-ionizing radiation (B-E). The co-cultures have been performed in presence or absence of the indicated pharmacological death effector inhibitors. The detection of plasma membrane integrity (with DRAQ7) and PS exposure (with BV786-streptavidin/Annexin V biotin) have been analyzed for the untreated (red/dark grey) CMTMR^+ HCT116 cells, for untreated (green/light grey) CMFDA^+ HCT116 cells, for treated (green/light grey) CMFDA^+ HCT116 cells and for total cell population (CMTMR^+ or CMFDA^+ HCT116 cells). Representative dot plots (A,B) and quantitative data (C-E) are shown (means±SEM, n=3). (F,G) Representative cell cycle distributions of untreated (red/dark grey) CMTMR^+ HCT116 cells, untreated (green/light grey) CMFDA^+ HCT116 cells, treated (green/light grey) CMFDA^+ HCT116 cells and for total cell population (CMTMR^+ or CMFDA^+ HCT116 cells) obtained after 24 hour co-culture of untreated (red/dark grey) CMTMR-labeled HCT116 cells with untreated (green/light grey) CMFDA-labeled HCT116 cells (F, H-J), of untreated (red/dark grey) CMTMR-labeled HCT116 cells and untreated (green/light grey) CMFDA-labeled HCT116 cells that have been extemporally mixed (H-J) or after 24 hour co-culture of untreated (red/dark grey) CMTM-labeled HCT116 cells with (green/light grey) CMFDA-labeled HCT116 cells (green/light grey) that have been irradiated with 4 grays of γ-ionizing radiation (G-J) are shown. Quantitative data of cell cycle analysis are shown in (H-J) (means±SEM, n=3). * or # or $ represents p<0.05, ## or $$ p<0.01, *** or ###p<0.001.
FIG. 3 Detection of γ-irradiation-elicited non-cell autonomous death modalities by quantitative imaging flow-cytometry and confocal fluorescence microscopy. (A-G) Cell-in-cell structures and target cell degradation were determined by quantitative imaging (A-C) and confocal fluorescent microscopy (D-G) after 24 hour co-culture of untreated (red/dark grey) CMTM-labeled HCT116 cells with (green/light grey) CMFDA-labeled HCT116 cells that have been irradiated with 4 grays of γ-ionizing radiation (A), coculture of untreated (red/dark grey) CMTMR-labeled HCT116 cells with untreated (green/light grey) CMFDA-labeled HCT116 cells (B, C) or on CMTMR labeled (red/dark grey) HCT116 cells and untreated (green/light grey) CMFDA-labeled HCT116 cells that have been extemporally mixed (B, C). As previously described, cells have been sequentially labeled after co-cultures with specific fluorescent probes like BV786-streptavidin-Annexin V biotin, DRAQ7, and Hoechst 33342. Then, (red/dark grey) CMTMR-labeled HCT116 cells internalizing (green/light grey) CMFDA-labeled HCT116 cells (noted R(G)), and (green/light grey) CMFDA-labeled HCT116 cells internalizing (red/dark grey) CMTMR-labeled HCT116 cells (noted G(R)) were detected. Representative images are shown in (A) (scale, 20 μm). Frequencies of Cell-in-Cell structures (B) and target cell degradation (C) are reported (means±SEM, n=3). Representative confocal images of cell-in-cell structures (white arrow) (D) and target cell degradation (white dotted arrow) (E) detected during co-culture of untreated (red) CMTMR-labeled HCT116 cells with untreated or γ-irradiated (green) CMFDA-labeled cells are shown (scale bar=10 μm). […]

Compound | engulfment of neighboring cells by gamma-irradiated CMFDA+ cells (cell-in-cell structures) (ZVAD 100 μM) | PS exposure on outer plasma membrane of irradiated CMFDA+ cells (ZVAD 100 μM) | cellular degradation of engulfed CMTMR+ cells (ZVAD 100 μM, YVAD 100 μM) | frequency of dying cells (AnnexinV+DRAQ7- and DRAQ7+) (total, non-irradiated CMTMR+ and irradiated CMFDA+ cells, BafA1 50 nM)
C[C@@H](N)[C@H]1CC[C@H](C(=O)Nc2ccncc2)CC1 [Y27632] | repressed | – | – | –
COC(=O)CC(NC(=O)C(C)NC(=O)C(NC(=O)OCc1ccccc1)C(C)C)C(=O)CF (stereo not drawn) [Z-VAD-fmk, Benzyloxycarbonyl-Val-Ala-Asp(OMe)-fluoromethylketone] (Cbz-Val-Ala-Asp(OMe)-CH2F; configuration not given here) | not affected | inhibited the exposure of PS | significantly reduced | –
CO/C1=C\C(C)=C\[C@@H](C)[C@@H](O)[C@@H](C)C/C(C)=C/C=C/[C@H](OC)[C@@H]([C@@H](C)[C@@H](O)[C@H](C)[C@@]2(O)C[C@@H](O)[C@H](C)[C@@H](C(C)C)O2)OC1=O [bafilomycin A1, Bafilomycin A1] | – | – | – | increased the frequency of dying cells
CC[C@H](CO)Nc1nc(NCc2ccccc2)c2ncn(C(C)C)c2n1 [roscovitine, Roscovitine] | – | inhibited the exposure of PS | – | –
